Values quoted from earlier work, collected in US6894093B2, “Materials free of endorine disruptive chemicals” (priority 2001, dated 2005).
Like-named read-outs stand apart in the source and are kept apart here.

Experiments:
[1] = design: key: Estrogenic (EA); Carcinogenic (CA) Activity; settings: plastic monomers

## CC(C)(c1ccc(O)cc1)c1ccc(O)cc1 [Bisphenol A]
[1]
  Monomer Exhibits Estrogenic (EA) or Carcinogenic (CA) Activity: EA
Estrogen receptor (ER); statement in background text
  endocrine disruptive activity: exhibit endocrine disruptive activity
  estrogenic activity: deleterious estrogenic activity

## COc1ccc(O)c(C(C)(C)C)c1 [Butylated hydroxyanisole (BHA), Butylated hydroxyanisole]
other
  ADI: 0 to 0.5 mg/kg

## CCCCC(CC)COC(=O)c1ccccc1C(=O)OCC(CC)CCCC (stereo not shown) [DEHP, di(2-ethylhexyl) phthalate]
Estrogen receptor (ER); statement in background text
  estrogenic activity: estrogen-mimicking

## CCCOC(=O)c1cc(O)c(O)c(O)c1 [Propyl gallate]
other
  ADI: 0 to 2.5 mg/kg

## CC(C)(C)c1cc(O)ccc1O [Tert-Butylhydroquinone (TBHQ), Tert-Butylhydroquinone]
other
  ADI: 0 to 0.2 mg/kg

## C=CCl [Vinylchloride]
[1]
  Monomer Exhibits Estrogenic (EA) or Carcinogenic (CA) Activity: CA

## (di)Butyl hydroxy toluene [(di)Butyl hydroxy toluene (BHT)]
Estrogen receptor (ER)
  Predicted Estrogenic Activity: Yes
  endocrine disruptive activity: exhibits endocrine disruptive activity
